# Source: US20130190407A1, “CALCIUM RECEPTOR-ACTIVE MOLECULES” (NPS Pharmaceuticals, Inc., priority 1991, published 2013)
# Key:
# Format in all cases: cell-based
# [1] = target: T1, osteoclast calcium receptor (Rattus norvegicus, UniProt P48442); experiment: [Ca2+]i (indo-1) in single rat osteoclasts
# T1 sequence (P48442 20-1079): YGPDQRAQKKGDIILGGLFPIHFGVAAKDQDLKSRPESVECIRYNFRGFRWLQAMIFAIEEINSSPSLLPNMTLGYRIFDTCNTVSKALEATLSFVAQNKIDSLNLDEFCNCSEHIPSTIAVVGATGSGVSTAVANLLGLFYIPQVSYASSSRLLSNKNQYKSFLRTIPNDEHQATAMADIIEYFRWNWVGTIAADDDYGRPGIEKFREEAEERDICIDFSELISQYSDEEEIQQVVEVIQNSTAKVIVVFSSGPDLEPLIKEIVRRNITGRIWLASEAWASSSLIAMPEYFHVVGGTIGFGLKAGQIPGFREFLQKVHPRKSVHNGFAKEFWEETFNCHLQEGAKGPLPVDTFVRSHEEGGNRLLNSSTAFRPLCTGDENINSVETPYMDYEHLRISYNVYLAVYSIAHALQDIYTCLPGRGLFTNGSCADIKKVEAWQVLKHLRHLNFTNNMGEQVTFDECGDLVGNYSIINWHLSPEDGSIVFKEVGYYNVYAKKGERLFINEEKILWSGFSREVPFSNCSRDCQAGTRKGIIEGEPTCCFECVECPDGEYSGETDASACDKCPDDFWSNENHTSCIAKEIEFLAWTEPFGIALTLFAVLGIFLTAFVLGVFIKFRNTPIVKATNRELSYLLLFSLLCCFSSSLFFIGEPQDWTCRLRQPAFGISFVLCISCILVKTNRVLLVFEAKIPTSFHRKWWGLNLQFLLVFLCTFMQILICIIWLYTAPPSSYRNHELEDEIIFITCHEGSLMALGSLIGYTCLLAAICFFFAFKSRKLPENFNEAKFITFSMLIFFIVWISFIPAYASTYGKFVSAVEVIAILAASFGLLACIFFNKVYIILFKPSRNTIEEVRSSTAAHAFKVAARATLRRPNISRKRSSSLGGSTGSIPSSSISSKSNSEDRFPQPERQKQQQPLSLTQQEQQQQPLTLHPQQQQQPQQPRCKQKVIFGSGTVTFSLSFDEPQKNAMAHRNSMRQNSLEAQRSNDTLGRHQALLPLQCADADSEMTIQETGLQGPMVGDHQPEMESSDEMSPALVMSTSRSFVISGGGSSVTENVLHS
# Bovine parathyroid cells = details: 10 μM isoproterenol 15 min; no pertussis toxin; 2.0 mM Ca2+, 200 μM spermine, 30 μM neomycin B, 2 μg/ml protamine; mean ± SEM
# Procedure: This section describes measuring cyclic AMP levels. Cells were incubated as above for PTH secretion studies and at the end of the incubation, a 0.15-ml sample was taken and transferred to 0.85 ml of hot (70° C.) water and heated at this temperature for 5-10 minutes. The tubes were subsequently frozen and thawed several times and the cellular debris sedimented by centrifugation. Portions of the supernatant were acetylated and cyclic AMP concentrations determined by radioimmunoassay.
# Bovine parathyroid cells were cultured for 16 hours with or without 100 ng/ml pertussis toxin. […] Each value is the mean±SEM of three experiments.
# [2] = target: T2, parathyroid cell calcium receptor (Bos taurus, UniProt P35384); experiment: Cl- current in Xenopus oocytes injected with bovine parathyroid cell poly(A)+-mRNA; set-up: Whole pieces of gland were used to prepare mRNA that directs the expression of the calcium receptor in Xenopus oocytes; expressed in transfected cells; host or cells: Xenopus laevis oocytes injected with total poly(A)+ mRNA from bovine parathyroid glands; details: 100 μM
# T2 sequence (P35384 20-1085): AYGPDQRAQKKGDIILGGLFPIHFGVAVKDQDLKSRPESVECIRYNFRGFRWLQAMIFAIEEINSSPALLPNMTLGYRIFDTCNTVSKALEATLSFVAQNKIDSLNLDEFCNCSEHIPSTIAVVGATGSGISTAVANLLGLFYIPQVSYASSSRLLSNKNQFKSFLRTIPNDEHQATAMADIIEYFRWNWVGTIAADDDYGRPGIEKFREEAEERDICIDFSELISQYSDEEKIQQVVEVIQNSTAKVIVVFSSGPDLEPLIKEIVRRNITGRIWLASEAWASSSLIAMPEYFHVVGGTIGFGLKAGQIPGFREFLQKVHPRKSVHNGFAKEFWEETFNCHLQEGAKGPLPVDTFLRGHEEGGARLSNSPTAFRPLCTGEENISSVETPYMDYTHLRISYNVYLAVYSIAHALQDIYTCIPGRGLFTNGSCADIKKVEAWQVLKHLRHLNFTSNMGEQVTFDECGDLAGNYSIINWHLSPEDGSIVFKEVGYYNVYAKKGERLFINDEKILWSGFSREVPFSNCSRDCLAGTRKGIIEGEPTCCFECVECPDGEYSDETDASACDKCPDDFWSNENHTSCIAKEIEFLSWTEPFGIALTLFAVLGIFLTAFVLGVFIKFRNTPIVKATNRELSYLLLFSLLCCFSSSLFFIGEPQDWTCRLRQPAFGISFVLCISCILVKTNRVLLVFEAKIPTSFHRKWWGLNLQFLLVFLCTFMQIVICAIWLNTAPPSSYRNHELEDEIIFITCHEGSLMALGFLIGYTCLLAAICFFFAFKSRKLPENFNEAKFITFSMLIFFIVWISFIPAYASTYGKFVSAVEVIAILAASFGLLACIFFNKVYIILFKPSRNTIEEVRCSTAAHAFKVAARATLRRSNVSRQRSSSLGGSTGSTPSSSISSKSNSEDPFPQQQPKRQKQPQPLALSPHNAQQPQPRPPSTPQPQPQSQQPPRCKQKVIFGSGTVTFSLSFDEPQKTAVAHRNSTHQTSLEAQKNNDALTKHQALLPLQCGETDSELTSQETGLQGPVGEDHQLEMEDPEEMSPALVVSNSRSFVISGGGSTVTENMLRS
# Procedure: (§1) Following incubation, an oocyte was placed into a 100-μl plastic chamber and superfused with MBS at a flow rate of 0.5 ml/min using a peristaltic pump. Test molecules or inorganic polycations were added by rapidly moving the tubing into different buffers. Recording and current-passing electrodes were constructed from thin-wall capillary tubing pulled to a resistance of 1-3 Mohms and filled with 3 M KCl. […] Currents were recorded directly onto a strip chart recorder.
# Dissociated bovine parathyroid cells were used to further explore the mechanism of action of NPS R-467 at the receptor level. […] It does, however, elicit responses in parathyroid cells and in oocytes when a small amount of extracellular Ca^2+ is present.
# [3] = target: T2, parathyroid cell calcium receptor; experiment: Mobilization of intracellular Ca2+ ([Ca2+]i, fura-2) in bovine parathyroid cells; set-up: Parathyroid glands were obtained from freshly slaughtered calves (12-15 weeks old); endogenous in cells; host or cells: dissociated primary bovine (calf) parathyroid cells; details: Table 6; bovine parathyroid cells; read-out: EC50 PARATHYROID
# Procedure: This section describes procedures used to obtain and treat parathyroid cells from calves and humans. […] Human parathyroid glands, were obtained from patients undergoing surgical removal of parathyroid tissue for primary or uremic hyperparathyroidism (uremic HPT), and were treated similarly to bovine tissue.
# Glands were trimmed of excess fat and connective tissue and then minced with fine scissors into cubes approximately 2-3 mm on a side. Dissociated parathyroid cells were prepared by collagenase digestion and then purified by centrifugation in Percoll buffer. The resultant parathyroid cell preparation was essentially devoid of red blood cells, adipocytes, and capillary tissue as assessed by phase contrast microscopy and Sudan black B staining. Dissociated and purified parathyroid cells were present as small clusters containing 5 to 20 cells.
# The cells were then pelleted, resuspended in the same buffer, but lacking the ester, and incubated a further 15 minutes at 37° C. The cells were subsequently washed twice with PCB containing 0.5 mM CaCl2 and 0.5% BSA and maintained at room temperature (about 20° C.) Immediately before use, the cells were diluted five-fold with prewarmed 0.5 mM CaCl2-PCB to obtain a final BSA concentration of 0.1%. The concentration of cells in the cuvette used for fluorescence recording was 1−2×10^6/ml.
# The fluorescence of indicator-loaded cells was measured at 37° C. in a spectrofluorimeter (Biomedical Instrumentation Group, University of Pennsylvania, Philadelphia, Pa.) equipped with a thermostated cuvette holder and magnetic stirrer using excitation and emission wavelengths of 340 and 510 nm, respectively. […] Leakage of dye is dependent on temperature and most occurs within the first 2 minutes after warming the cells in the cuvette. Dye leakage increases only very slowly thereafter. To correct the calibration for dye leakage, cells were placed in the cuvette and stirred at 37° C. for 2-3 minutes. The cell suspension was then removed, the cells pelleted, and the supernatant returned to a clean cuvette. […] This estimate was subtracted from the apparent Fmin.
# [4] = target: T3, bovine parathyroid cell calcium receptor (Bos taurus, UniProt P35384); experiment: Cl- current in Xenopus oocytes injected with BoPCaR 1
# T3 construct: isolation of a single clone (BoPCaR 1) with a cDNA insert of 5.3 kb; expressed in transfected cells
# T3 sequence (P35384 20-1085): T2 sequence (P35384 20-1085)
# Procedure: Several pharmacological and biochemical criteria were used to identify this clone as encoding a bona fide bovine parathyroid Ca^2+ receptor. […] These responses increased markedly over a period of one to four days after injection of the eggs with cRNA prepared from the BoPCaR 1 cDNA. Furthermore, the ranges of the concentrations of the two cations eliciting this response were very similar to those shown previously to act on bovine parathyroid cells in vitro.
# Xenopus oocytes were injected with BoPCaR 1, the 5.3 Kb cDNA encoding a bovine parathyroid cell calcium receptor as described in Example 25. After two to three days, Cl^− currents were examined in the oocytes using a two-electrode voltage clamp.
# Xenopus oocytes were injected with BoPCaR 1 as described in Example 25. After two to three days, Cl^− currents were examined in the oocytes using two electrode voltage clamp.
# calcium receptor = target: T4, calcium receptor (Homo sapiens, UniProt P41180); experiment: Cl- current in Xenopus oocytes injected with human parathyroid cell mRNA; details: hexacyclen 135 μM, neomycin 100 μM, NPS 382 5 mM
# T4 construct: poly(A)^+-enriched mRNA from human parathyroid tissue (hyperplastic glands from a case of secondary HPT); expressed in transfected cells; host or cells: Xenopus laevis oocytes injected with poly(A)+ mRNA from hyperplastic human parathyroid glands
# T4 sequence (P41180 20-1078): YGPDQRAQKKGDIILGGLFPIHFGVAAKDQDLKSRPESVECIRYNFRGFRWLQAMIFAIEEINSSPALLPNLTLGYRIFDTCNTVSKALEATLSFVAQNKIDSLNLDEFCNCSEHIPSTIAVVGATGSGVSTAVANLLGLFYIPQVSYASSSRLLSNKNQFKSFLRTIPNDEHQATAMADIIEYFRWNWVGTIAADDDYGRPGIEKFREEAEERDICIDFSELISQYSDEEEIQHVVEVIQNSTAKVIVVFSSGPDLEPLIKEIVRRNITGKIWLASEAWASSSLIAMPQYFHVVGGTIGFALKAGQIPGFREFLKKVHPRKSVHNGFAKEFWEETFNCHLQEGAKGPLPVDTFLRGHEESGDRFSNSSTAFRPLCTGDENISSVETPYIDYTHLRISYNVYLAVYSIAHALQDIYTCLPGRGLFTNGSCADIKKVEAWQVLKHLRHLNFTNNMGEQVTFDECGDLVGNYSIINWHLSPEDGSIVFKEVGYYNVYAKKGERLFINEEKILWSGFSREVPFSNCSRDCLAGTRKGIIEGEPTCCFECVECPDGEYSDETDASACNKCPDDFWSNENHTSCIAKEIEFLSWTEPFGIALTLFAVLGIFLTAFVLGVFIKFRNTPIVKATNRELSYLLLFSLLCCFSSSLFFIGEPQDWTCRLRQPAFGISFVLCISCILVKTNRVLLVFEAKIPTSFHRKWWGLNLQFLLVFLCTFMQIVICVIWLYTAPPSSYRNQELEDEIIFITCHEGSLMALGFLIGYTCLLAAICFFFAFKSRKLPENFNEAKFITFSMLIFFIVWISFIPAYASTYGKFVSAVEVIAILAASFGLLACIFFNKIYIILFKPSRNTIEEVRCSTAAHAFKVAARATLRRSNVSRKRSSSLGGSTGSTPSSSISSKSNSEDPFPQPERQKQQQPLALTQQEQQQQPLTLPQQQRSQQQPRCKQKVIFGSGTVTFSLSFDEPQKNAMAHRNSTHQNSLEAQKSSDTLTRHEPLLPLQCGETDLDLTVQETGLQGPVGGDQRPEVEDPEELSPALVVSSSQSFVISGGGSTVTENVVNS
# Procedure: Oocytes were injected with poly(A)^+-enriched mRNA from human parathyroid tissue (hyperplastic glands from a case of secondary HPT).
# as §1
# Using this screen allows one to test for an action directly on the calcium receptor. Oocytes expressing the calcium receptor also responded to several molecules active on intact parathyroid cells when screened as follows. […] This offers rather compelling evidence showing that these molecules act on the calcium receptor or on some other protein intimately associated with its function.
smiles,measurement,setting,value
"NCCCCNCCCN [Spermidine, spermidine]",compounds that caused any large increase in [Ca2+]i,[1],none
"NCCCNCCCCNCCCN [Spermine, spermine]","cyclic AMP (% of control), control",Bovine parathyroid cells,23 ± 5 % of control
"CC(NCCC(c1ccccc1)c1ccccc1)c1ccccc1 (racemic) [Fendiline, fendiline]",Cl- current,[2],elicits oscillatory increases in Cl^− current
same,EC50,[3],15 µM
COc1cccc([C@H](C)NCCCc2ccccc2Cl)c1 [NPS S-568],concentration eliciting Cl- current responses,[4],100 µM
"NCCCNCCCCNCCCNCCCN(O)CCCNC(=O)Cc1c[nH]c2ccccc12 [NPS 017, Agatoxin 489]",EC50 OSTEOCLAST,"[1]; Table 6, rat osteoclasts, indo-1",inactive
same,Cl- current,[4]; 1 mM extracellular Ca2+,oscillatory increases in the Cl^− current
"NCCCN(CCCN)CCCNCCCCNCCCN(CCCN)CCCN [NPS 382, N^1, N^1, N^5, N^14, N^14-tetrakis-(3-aminopropyl)spermine]",mobilization of intracellular Ca2+ in oocytes,calcium receptor,effective
